{"source": "patent US12053446B1", "about": "“Methods for the prevention and treatment of hearing loss using Oseltamivir” (Ting Therapeutics LLC, priority 2022, dated 2024)", "key": {"[1]": {"tested_on": "inner ear cell line HEI-OC1", "assay": "high-throughput screen of FDA-approved drugs for cisplatin-induced cell-death protection", "type": "cell-based", "details": "1,300 FDA-approved drugs screened", "text": "Oseltamivir is an oral widely used anti-viral drug. Significant protection by Oseltamivir against hearing loss is shown herein in doses equivalent to those approved for human use."}, "[2]": {"tested_on": "adult 12 weeks old CBA/CaJ mice", "assay": "cisplatin-induced hearing loss in adult mice, multi-dose cisplatin regimen", "type": "in vivo, mouse", "protocol": "Now referring to FIG. 4B, mice exposed to multi-dose cisplatin treatments show reduced reduction in wave 1 amplitude 16 kHz recording form 30-90 dB SPL, and Oseltamivir treatment at the dose of 50 mg/kg increased the 16-kHz wave-1 amplitude at 90 SPL.\nNow referring to FIG. 4C, Oseltamivir (10 mg/kg and 50 mg/kg doses) increased the percent of total mice surviving 40 days after beginning of cisplatin exposure. Auditory Brainstem Response threshold shifts recorded as previously described. Similar wave-1 amplitude recordings have been described Hazlitt J et al., Med. Chem. 61, 7700-7709 (2018); Teitz et al., J. Exp. Med. 215, 1187-1203 (2018).\nNow referring to FIG. 5A, confocal images of myosin-VI stained basal, middle, apical turn cochlear regions show outer hair cells of mice exposed to treatment of 50 mg/kg Oseltamivir alone or exposed to cisplatin with or without treatment of 10 or 50 mg/kg Oseltamivir. Now referring to FIG. 5B, count of outer hair cells per 160 μm for cochlear regions. Mean±SEM, P=*<0.05, **<0.01, compared to noise alone by two-way ANOVA with Bonferroni post-hoc test. N=5 cochleae counted per bar. Similar Myosin VI experiments are described in Liu Z et al., PLoS One. Feb. 20, 2014; 9(2):e89377 (2014)."}, "[3]": {"tested_on": "adult P42 FVB mice", "assay": "noise-induced hearing loss in adult mice, Oseltamivir pre-treatment before noise exposure", "type": "in vivo, mouse", "protocol": "(§1) Now referring to FIG. 2A, adult P42 FVB mice began treatment with Oseltamivir administered oral gavage at 100 mg/kg body weight twice daily for three days once 45 minutes before exposure and then for two days after noise exposure. Now referring to FIG. 2B, auditory brainstem response (ABR) were recorded 14 days after noise exposure of 100 dB, 8-16 kHz octave band, for two hours. […] Control is shown as carrier. Statistical analysis was done with repeated measures ANOVA between groups. Mean±SEM, P=**<0.01, ***<0.001, compared to noise alone by two-way ANOVA with Bonferroni post-hoc test.\nThe experimental procedures for the data shown in FIGS. 2A-B are as follows: Animals were anesthetized with avertin. Subcutaneous needle electrodes were inserted behind the pinna (inverting), vertex of the skull (non-inverting) and base of the tail (ground). Tone bursts of 5 ms duration with 0.5 ms cosine-squared envelopes delivered at a rate of 21 stimuli per second with alternating polarity were generated using BioSigRZ software and RZ6 multi I/O processor system (Tucker-Davis Technologies, FL). Stimuli were presented as open field via a speaker (MF1: TDT, FL) placed 10 cm in front of the pinna of the animal. Evoked responses were amplified (20×), bandpass filtered (300-3,000 Hz) and average of 512 responses of 10 ms duration was recorded. […]"}, "[4]": {"tested_on": "P3 FVB mouse cochlear explants", "assay": "cisplatin-induced hair cell death in P3 FVB mouse cochlear explants", "type": "cell-based", "protocol": "Now referring to FIG. 1A, a representation of the chemical structure of Oseltamivir phosphate is shown. […] The explants were treated for 24 hours. […] Percent protection for compound at the tested dosages were then plotted to show dose response curves, and IC50 were calculated.\nExperimental procedures for the images shown in FIG. 1C are as follows: Mice were approved by the Institutional Animal Care and Use Committee (IACUC) at the Creighton University. Inner ears were collected from the post-natal day 3 (P3) FVB mice and transferred onto a filter (Millicell, PICM03050; Millipore) soaked in culturing medium. The filter was placed in 6-well culture plates with 1.2 mL medium outside the filter. […] Cells may be maintained in culture with the aid of Matrigel as previously described in Kelley and Driver, Curr. Protoc. Neurosci."}, "[5]": {"tested_on": "adult P42 FVB mice", "assay": "noise-induced hearing loss in adult mice, Oseltamivir treatment 24 hours after noise exposure", "type": "in vivo, mouse", "text": "The experimental procedures for the data shown in FIGS. 2A-B are as follows: Animals were anesthetized with avertin. Subcutaneous needle electrodes were inserted behind the pinna (inverting), vertex of the skull (non-inverting) and base of the tail (ground). Tone bursts of 5 ms duration with 0.5 ms cosine-squared envelopes delivered at a rate of 21 stimuli per second with alternating polarity were generated using BioSigRZ software and RZ6 multi I/O processor system (Tucker-Davis Technologies, FL). Stimuli were presented as open field via a speaker (MF1: TDT, FL) placed 10 cm in front of the pinna of the animal. Evoked responses were amplified (20×), bandpass filtered (300-3,000 Hz) and average of 512 responses of 10 ms duration was recorded. Stimulus intensity was decreased in 5 dB increments, starting from 100 dB SPL to 0 dB SPL. Thresholds at 4, 5.6, 8, 16, 22.6, 32, 45.2, and 64 kHz were identified by visual inspection from stacked waveforms as the lowest level at which reproducible response could be identified. Before the start of every session, stimulus presenting speaker (MF1) was calibrated with a ¼″ microphone (PCB-378C10; PCB Piezotronics, NY) that was also placed 10 cm in front of the speaker. Similar experiments have been previously described in Rai V. et al., Sci Rep. 2020 Sep. 16; 10(1):15167.\nas §1, with “3A,” for “2A,”, “beginning 24 hours following noise” for “once 45 minutes before”, “of 100 dB, 8-16 kHz octave band,” for “and then”, “hours.” for “days after noise exposure.”, “3B,” for “2B,”\nNow referring to […], amplitudes of auditory Brainstem Response wave 1 from auditory brainstem response recording of FIG. 3A. The auditory Brainstem Response wave-1 amplitude represents the summed activity of the cochlear nerve. Mean wave-1 amplitudes was measured in the control and Oseltamivir-treated mice before and after noise exposure. Amplitudes from the 90 dB SPL stimuli were compared between groups using a two-factor ANOVA (group× frequency), and difference was detected between the noise alone group to Oseltamivir plus noise. at 14 days post-noise exposure.\nNow referring to FIG. 3D, Distortion Product Otoacoustic Emissions (DPOAE) threshold shifts were measured in adult FVB mice 14 days after noise exposure of 100 dB, 8-16 kHz octave band, for two hours. DPOAE audiograms provide a direct indicator of cochlear sensitivity at the level of the OHC. […] Control is shown as carrier. Statistical analysis was done with repeated measures ANOVA between groups. Mean±SEM, P=**<0.01, ***<0.001, compared to noise alone by two-way ANOVA with Bonferroni post-hoc test.\nNow referring to FIG. 3F, Oseltamivir administered post-noise exposure is shown to increase number of CtBP2 puncta. Number of CtBP2 puncta per IHC at the 16 kHz cochlear region were counted, data shown as mean±SEM, P=**<0.01, ***<0.001 by one-way ANOVA with Bonferroni post-hoc test, n=6-7 cochleae. An average of 4 CtBP2 puncta per IHC are restored compared to group exposed to noise without Oseltamivir treatment.\nExperimental procedure for distortion product otoacoustic emissions (DPOAE) measurements, primary tones were set to generate 2f1-f2 distortion products at frequencies between 1 and 50 kHz, DPOAEs were measured for levels of f1 ranging from 10 to 80 dB SPL, with the levels of the f2 tone set 10 dB below that of the f1 tone. Similar experiments are described in Lukashkina A. V. et al., Scientific reports, July 12; 7(1), 5185. (2017). Similar Ctpb2/MyosinVI experiments are described in Liu Z et al., PLoS One. Feb. 20, 2014; 9(2):e89377 (2014)."}}, "data": [{"smiles": "CCOC(=O)C1=C[C@@H](OC(CC)CC)[C@H](NC(C)=O)[C@@H](N)C1", "note": "[Oseltamivir, oseltamivir phosphate]", "values": [{"measurement": "hit in screen for cisplatin-induced cell-death protection", "setting": "[1]", "value": "one of the best hits"}, {"measurement": "16-kHz wave-1 amplitude", "setting": "[2]; 50 mg/kg Oseltamivir, 90 SPL, multi-dose cisplatin", "value": "increased"}, {"measurement": "auditory brainstem response threshold shift vs cisplatin without treatment", "setting": "[2]; 8, 16, and 32 kHz, 10 and 50 mg/kg Oseltamivir oral twice-daily, cisplatin 3 mg/kg IP, 3 cycles", "value": "lower"}, {"measurement": "percent of total mice surviving", "setting": "[2]; 40 days after beginning of cisplatin exposure, 10 mg/kg and 50 mg/kg", "value": "increased"}, {"measurement": "outer hair cells, Myosin VI stained basal, middle, apical cochlear regions", "setting": "[2]; multi-dose cisplatin regimen, 10 or 50 mg/kg Oseltamivir", "value": "preserved outer hair cells in all regions"}, {"measurement": "protection, auditory brainstem response measurements", "setting": "[3]; 100 mg/kg oral gavage twice daily for three days, first dose 45 minutes before noise (100 dB, 8-16 kHz, two hours), ABR 14 days after noise", "value": "24-28 dB"}, {"measurement": "ABR threshold shift vs noise-exposed control", "setting": "[3]; 100 mg/kg oral twice daily, three days, starting 45 minutes before noise, 14 days after noise", "value": "Significant protection against hearing loss"}, {"measurement": "protection against cisplatin induced hair cell loss, phalloidin-stained middle turn images", "setting": "[4]; 3 μM Oseltamivir and 150 μM Cisplatin", "value": "shows protection"}, {"measurement": "IC50", "setting": "[4]; Mus musculus, Oseltamivir added 1 h before cisplatin (150 μM), 24 h, read-out: IC50 (percent protection from cisplatin-induced hair cell death)", "value": 450, "unit": "nM"}, {"measurement": "LD50", "setting": "[4]; Oseltamivir alone, cochlear explants, 24 h", "value": "> 100", "unit": "µM"}, {"measurement": "ABR threshold shift vs noise-exposed control", "setting": "[5]; 100 mg/kg oral twice daily, three days, beginning 24 hours after noise, 14 days after noise", "value": "Significant protection against hearing loss"}, {"measurement": "loss of CtBP2-puncta in inner hair cells vs noise alone", "setting": "[5]; 16 kHz cochlear region", "value": "partially restores"}, {"measurement": "CtBP2 puncta per IHC restored vs noise without Oseltamivir", "setting": "[5]; 16 kHz cochlear region, post-noise administration, average", "value": 4}, {"measurement": "ABR wave-1 amplitude vs noise exposure only group", "setting": "[5]; 16 kHz, 90 dB SPL, 14 days post-noise exposure", "value": "higher amplitudes"}, {"measurement": "DPOAE threshold shift vs noise-exposed control", "setting": "[5]; 14 days after noise exposure of 100 dB, 8-16 kHz, two hours", "value": "Significant protection against hearing loss"}, {"measurement": "protection, auditory Brainstem Response and DPOAE measurements", "setting": "[5]; oral, 45 minutes before noise exposure and 24 hours after noise exposure, three consecutive days", "value": "20-28 dB"}, {"measurement": "protection against noise-induced hearing loss (ABR threshold shift)", "setting": "[5]; treatment 24 hours after noise exposure, 100, 50 and 10 mg/kg, 8, 16, 32 kHz", "value": "protects"}]}]}
